Test results: article PMC3260207, “Site-Directed Mutations and the Polymorphic Variant Ala160Thr in the Human Thromboxane Receptor Uncover a Structural Role for Transmembrane Helix 4” (PLoS ONE, 2012)
Where a chain is given by its changes, count along the chain named.

Experiments:
Assay in all cases: Saturation radioligand binding with [3H] SQ 29,548, membranes
Conditions in all cases: picomoles of TP per milligram of total membrane protein, mean ± S.E
TP A160S mutant = molecular target: T1, TP A160S mutant (Homo sapiens, UniProt P21731, A160S)
T1 construct: expressed in transfected cells; HEK293T (calcium assays)
T1 sequence (P21731 1-343 A160S): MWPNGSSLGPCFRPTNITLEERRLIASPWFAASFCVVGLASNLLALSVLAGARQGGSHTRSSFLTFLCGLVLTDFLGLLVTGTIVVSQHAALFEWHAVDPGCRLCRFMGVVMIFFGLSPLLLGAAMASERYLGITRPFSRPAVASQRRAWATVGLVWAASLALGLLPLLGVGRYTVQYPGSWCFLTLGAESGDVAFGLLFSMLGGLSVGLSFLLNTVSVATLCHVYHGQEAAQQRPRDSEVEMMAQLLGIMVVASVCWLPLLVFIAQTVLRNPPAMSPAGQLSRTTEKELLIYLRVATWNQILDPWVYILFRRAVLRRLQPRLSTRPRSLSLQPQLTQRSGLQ
Protocol: (§1) Amino acid substitutions were introduced into the synthetic TPα gene carried by the expression vector pMT4 as described previously, [29]. DNA sequences of all the mutated genes were verified by automated DNA sequencing. To minimize variations in transfection efficiency, the total amount transfected DNA was kept constant in all cases at 1 µg of DNA per 7×10^5 cells. The wild type TP or mutant genes were expressed in COS-1 cells using a DEAE-dextran based transient transfection method, [29], and in HEK293T cells using lipofectamine 2000 (Invitrogen). Except unless specified, the membranes prepared from COS-1 cells were used for radioligand binding assays and immunoblots. For intracellular calcium determination assays and immunofluorescence imaging, HEK293T cells were used. For transient transfections of HEK293T cells using the plasmid pMT4, lipofectamine 2000 (Invitrogen) mediated transfection was used as described by the manufacturer. Membranes were prepared using Buffers A and B and as described previously, [29]. The protein concentration in the resuspended membrane pellet was determined using a modified DC protein assay kit from Bio-Rad Laboratories (Hercules, CA).
(§2) These were carried out in Buffer C for 60 min at room temperature, using 2 to 20 µg of membrane protein and different concentrations of [^3H] […] Binding of [^3H] […] Competition binding assays were performed using 4 nM [^3H] […] Binding was terminated by filtering under vacuum on GF/A filters (Millipore). Filter-bound radioactivity was measured using a liquid scintillation counter. Equilibrium dissociation constants (Kd) were determined from saturation isotherms using PRISM software version 5.0 (GraphPad Software Inc, San Diego, CA, USA). The Ki values were calculated from the IC50, using the equation of Cheng and Prusoff by PRISM software version 5.0.

TP G164A mutant = molecular target: T2, TP G164A mutant (Homo sapiens, UniProt P21731, G164A)
T2 construct: expressed in transfected cells; HEK293T (calcium assays)
T2 sequence (P21731 1-343 G164A): T1 sequence (P21731 1-343 A160S) with S160A, G164A
Protocol: as §1, §2

[1] = molecular target: T3, WT-TP (wild type human thromboxane A2 receptor TPα) (Homo sapiens, UniProt P21731)
T3 construct: expressed in transfected cells; HEK293T (calcium assays)
T3 sequence (P21731 1-343): T1 sequence (P21731 1-343 A160S) with S160A
Protocol: as §1, §2

TP A160V mutant = molecular target: T4, TP A160V mutant (Homo sapiens, UniProt P21731, A160V)
T4 construct: expressed in transfected cells; HEK293T (calcium assays)
T4 sequence (P21731 1-343 A160V): T1 sequence (P21731 1-343 A160S) with S160V
Protocol: as §1, §2

O=C(O)CCC/C=C\C[C@@H]1[C@H](CNNC(=O)Nc2ccccc2)[C@H]2CC[C@@H]1O2 [SQ 29,548]
Bmax, binding maximum of the ligand SQ 29,548 for the receptor (TP A160S mutant): 5.8 ± 0.5 pmol/mg | Bmax, binding maximum of the ligand SQ 29,548 for the receptor (TP G164A mutant): 6.3 ± 0.4 pmol/mg | Bmax, binding maximum of the ligand SQ 29,548 for the receptor [1]: 3.8 ± 0.3 pmol/mg | Bmax, binding maximum of the ligand SQ 29,548 for the receptor (TP A160V mutant): 1.9 ± 0.3 pmol/mg
